Assay results published in patent US8785662B2, “Anilide-based compounds for preserving wood and method of use thereof” (SDS Biotech K.K., priority 2010, dated 2014).

Tested on: Trametes versicolor
Assay: Agar plate colony growth inhibition test on Trametes versicolor, single compounds and mixtures with triazoles (Colby)
Type: cell-based
Settings: single compound 0.2 ppm, potato dextrose agar, 25° C., seventh day
Protocol: Each of 1% w/v dimethylsulfoxide solution of compound A, compound B, cyproconazole (manufactured by Wako Pure Chemical Industries, Ltd.), epoxyconazole (manufactured by Wako Pure Chemical Industries, Ltd.) and tetraconazole (manufactured by Wako Pure Chemical Industries, Ltd.) was prepared. The solutions diluted with dimethylsulfoxide were fully mixed in the sterilized potate dextrose agar medium, and 15 ml of the resultant medium was poured into a petri dish 90 mm in diameter and allowed to stand at room temperature. As a control, the potate dextrose agar medium added with dimethylsulfoxide only was also prepared. After the medium was solidified, the mycelia was scooped with the medium from the colony of Trametes versicolor as being a typical wood-decaying fungi, which had been cultivated in advance, using a cork bailer 5 mm in diameter; and inoculated in the center of the test medium. The fungi was cultivated in the petri dish at 25° C., and the diameter of the colony spread from the source of inoculum was measured on the seventh day. The growth inhibition ratio by comparing the diameter of the test colony to that of the control was determined by the above-mentioned formula as an indication of the actual measured growth inhibition ratio. The theoretical efficacy ratio of the mixture of the active ingredients (i.e. theoretical growth inhibition ratio) was determined using the following Colby's formula (R. S. Colby, Weeds 15, 20-22 (1967)) to thereby be compared with the actual-measured efficacy ratio ([…]). […] Colby's formula: E=x+y−x·y/100 [Formula 2] E: theoretical efficacy ratio (theoretical growth inhibition ratio) represented by the ratio (%) to the control when the mixture of active compound B (concentration b) and C (concentration c) was used. x: efficacy ratio (growth inhibition ratio) represented by the ratio (%) to the control when active compound B was used at a concentration of b. y: efficacy ratio (growth inhibition ratio) represented by the ratio (%) to the control when active compound C was used at a concentration of c.

Which “Actual measured growth inhibition ratio (%)” value does the source give for Fc1ccc([C@]2(Cn3cncn3)O[C@H]2c2ccccc2Cl)cc1 (racemic) [Epoxiconazole, epoxyconazole] here?
The value was 24%.

How did the “Actual measured growth inhibition ratio (%)” value turn out when Cc1cc(C(=O)Nc2cccc(C(C)C)c2)c(C(F)(F)F)o1 [Compound A, 3′-isopropyl-5-methyl-2-trifluoromethylfuran-3-carboxylic acid anilide] was run?
The value was 49%.

For Cc1cc(C(=O)Nc2cccc(OC(C)C)c2)c(C(F)(F)F)o1 [Compound B, 3′-isopropoxy-5-methyl-2-trifluoromethylfuran-3-carboxylic acid anilide], which “Actual measured growth inhibition ratio (%)” value is on record?
The value was 44%.

For FC(F)C(F)(F)OCC(Cn1cncn1)c1ccc(Cl)cc1Cl (centres unmarked) [Tetraconazole, tetraconazole], which “Actual measured growth inhibition ratio (%)” value is on record?
The value was 25%.

Which “Actual measured growth inhibition ratio (%)” value does the source give for CC(C1CC1)C(O)(Cn1cncn1)c1ccc(Cl)cc1 (centres unmarked) [cyproconazole] here?
Its value is 33%.

Tested on: Fomitopsis palustris
Assay: Agar plate colony growth inhibition test on Fomitopsis palustris
Type: cell-based
Settings: 0.5 ppm in potato dextrose agar, 25° C., colony diameter on the seventh day vs control
Protocol: Each of 1% w/v dimethylsulfoxide solution of compound A, compound B and comparative compounds 1 to 13 was prepared. A predetermined amount of the solutions diluted with dimethylsulfoxide were fully mixed in the sterilized potato dextrose agar medium, and 15 ml of the resultant medium was poured into a petri dish 90 mm in diameter and allowed to stand at room temperature. As a control, the potato dextrose agar medium added with dimethylsulfoxide only was also prepared. […] The fungi was cultivated in the petri dish at 25° C., and the diameter of the colony spread from the source of inoculum was measured on the seventh day. The growth inhibition ratio between the diameter of the test colony and that of the control was determined by the following formula as an indication of the degree of inhibition. Compounds A and B apparently had greater effects on Fomitopsis palustris compared to the compounds which had been disclosed in the past. Growth inhibition ratio (%)={(diameter of the control colony−diameter of the test colony)/diameter of the control colony}×100 [Formula 1]

Which “Degree of inhibition on Fomitopsis palustris at 0.5 ppm” value (“Degree of inhibition” below) does the source give for Cc1cc(C(=O)Nc2cccc(C(C)C)c2)c(C(F)(F)F)o1 [Compound A, 3′-isopropyl-5-methyl-2-trifluoromethylfuran-3-carboxylic acid anilide] here?
The value was “∘ (inhibition ratio of 75% or more)”.

Cc1cc(C(=O)Nc2cccc(OC(C)C)c2)c(C(F)(F)F)o1 [Compound B, 3′-isopropoxy-5-methyl-2-trifluoromethylfuran-3-carboxylic acid anilide] was tested. Which “Degree of inhibition” value did it give?
The value was “∘ (inhibition ratio of 75% or more)”.

Cc1cc(C(=O)Nc2cccc(C(C)C)c2)c(C)o1 [compound 1, 3′-isopropyl-2,5-dimethylfuran-3-carboxylic acid anilide] was tested. Which “Degree of inhibition” value did it give?
The value was “▴ (inhibition ratio of 25 to 50%)”.

How did the “Degree of inhibition” value turn out when CCc1cccc(NC(=O)c2cc(C)oc2C)c1 [compound 2, 3′-ethyl-2,5-dimethylfuran-3-carboxylic acid anilide] was run?
Its value is “▴ (inhibition ratio of 25 to 50%)”.

Which “Degree of inhibition” value does the source give for Cc1cccc(NC(=O)c2cc(C)oc2C)c1 [compound 3, 3′-methyl-2,5-dimethylfuran-3-carboxylic acid anilide] here?
The value was “x (inhibition ratio of 25% or less)”.

How did the “Degree of inhibition” value turn out when CC(C)Oc1cccc(NC(=O)c2ccccc2C(F)(F)F)c1 [compound 4, 3′-isopropoxy-2-trifluoromethyl benzoic acid anilide] was run?
The value was “▴ (inhibition ratio of 25 to 50%)”.

For Cc1ccccc1C(=O)Nc1cccc(OC(C)C)c1 [compound 5, 3′-isopropoxy-2-methylbenzoic acid anilide], which “Degree of inhibition” value is on record?
Its value is “▴ (inhibition ratio of 25 to 50%)”.

Cc1ccccc1C(=O)Nc1cccc(C(C)C)c1 [compound 6, 3′-isopropyl-2-methylbenzoic acid anilide] was tested. Which “Degree of inhibition” value did it give?
Its value is “▴ (inhibition ratio of 25 to 50%)”.

CC(C)c1cccc(NC(=O)c2ccoc2)c1 [compound 7, 3′-isopropyl-3-furancarboxylic acid anilide] was tested. Which “Degree of inhibition” value did it give?
The value was “x (inhibition ratio of 25% or less)”.

Cc1occc1C(=O)Nc1cccc(C(C)C)c1 [compound 8, 3′-isopropyl-2-methylfuran-3-carboxylic acid anilide] was tested. Which “Degree of inhibition” value did it give?
The value was “▴ (inhibition ratio of 25 to 50%)”.

With Cc1ncsc1C(=O)Nc1cccc(C(C)C)c1 [compound 9, 3′-isopropyl-4-methylthiazole-5-carboxylic acid anilide] as the compound, how does the “Degree of inhibition” value read?
Its value is “x (inhibition ratio of 25% or less)”.

For Cc1nc(C)c(C(=O)Nc2cccc(C(C)C)c2)s1 [compound 10, 3′-isopropyl-2,4-dimethyl-1,3-thiazole-5-carboxylic acid anilide], which “Degree of inhibition” value is on record?
Its value is “Δ (inhibition ratio of 50 to 75%)”.

With Cc1nc(C(F)(F)F)c(C(=O)Nc2cccc(C(C)C)c2)s1 [compound 11, 3′-isopropyl-2-methyl-4-trifluoromethyl-1,3-thiazole-5-carboxylic acid anilide] as the compound, how does the “Degree of inhibition” value read?
Its value is “▴ (inhibition ratio of 25 to 50%)”.

Which “Degree of inhibition” value does the source give for Cc1cc(C(=O)Nc2cccc(C(C)C)c2)c(C)[nH]1 [compound 12, 3′-isopropyl-2,5-dimethylpyrrole-3-carboxylic acid anilide] here?
Its value is “x (inhibition ratio of 25% or less)”.

How did the “Degree of inhibition” value turn out when CC(C)c1cccc(NC(=O)c2cn(C)nc2C(F)(F)F)c1 [compound 13, 3′-isopropyl-1-methyl-3-trifluoromethylpyrazole-4-carboxylic acid anilide] was run?
The value was “▴ (inhibition ratio of 25 to 50%)”.
